Laboratory results from ChEMBL document CHEMBL4831486, “Design, synthesis and biological evaluation of pleuromutilin-Schiff base hybrids as potent anti-MRSA agents in vitro and in vivo” (Eur J Med Chem, 2021).
≈ marks a conversion by molar mass, not a printed value.

Key:
[1] = test system: Staphylococcus aureus; test: Antibacterial activity against Methycillin-resistant Staphylococcus aureus ATCC 43300 assessed as inhibition of bacterial growth measured after 24 hrs by broth dilution method; type: functional
[2] = test system: Staphylococcus aureus; test: Antibacterial activity against Staphylococcus aureus ATCC 29213 assessed as inhibition of bacterial growth measured after 24 hrs by broth dilution method; type: functional
[3] = test system: Staphylococcus aureus; test: Antibacterial activity against Staphylococcus aureus AD3 assessed as inhibition of bacterial growth measured after 24 hrs by broth dilution method; type: functional
[4] = test system: Staphylococcus aureus; test: Antibacterial activity against Staphylococcus aureus 144 assessed as inhibition of bacterial growth measured after 24 hrs by broth dilution method; type: functional
[5] = test system: Escherichia coli; test: Antibacterial activity against Escherichia coli ATCC 25922 assessed as inhibition of bacterial growth measured after 24 hrs by broth dilution method; type: functional
[6] = test system: Staphylococcus aureus; test: Bactericidal activity against Methycillin-resistant Staphylococcus aureus ATCC 43300 assessed as inhibition of bacterial growth measured after 96 hrs by broth dilution method; type: functional
[7] = test system: Staphylococcus aureus; test: Bactericidal activity against Staphylococcus aureus ATCC 29213 assessed as inhibition of bacterial growth measured after 96 hrs by broth dilution method; type: functional
[8] = test system: Staphylococcus aureus; test: Bactericidal activity against Staphylococcus aureus AD3 assessed as inhibition of bacterial growth measured after 96 hrs by broth dilution method; type: functional
[9] = test system: Staphylococcus aureus; test: Bactericidal activity against Staphylococcus aureus 144 assessed as inhibition of bacterial growth measured after 96 hrs by broth dilution method; type: functional
[10] = test system: Escherichia coli; test: Bactericidal activity against Escherichia coli ATCC 25922 assessed as inhibition of bacterial growth measured after 96 hrs by broth dilution method; type: functional
[11] = test system: Staphylococcus aureus; test: Bactericidal activity against methicillin-resistant Staphylococcus aureus ATCC 43300 assessed as reduction in bacterial growth at 2X MIC measured for 24 hrs by time kill assay; type: functional; design: scale not given: the % may be the effect or the level left
[12] = test system: Staphylococcus aureus; test: (§1) Antibacterial activity against methicillin-resistant Staphylococcus aureus ATCC 43300 assessed as post antibiotic effect by measuring time required for increase in 1 log10 CFU/ml of bacteria at 2X MIC incubated for 2 hrs followed by compound washout and measured after 20 hrs by time-kill assay (reference value: 2.04 hrs); type: functional
[13] = test system: Staphylococcus aureus; test: as §1, with “4X” for “2X”; type: functional
[14] = test system: Staphylococcus aureus; test: Antibacterial activity against methicillin-resistant Staphylococcus aureus ATCC 43300 infected in neutropenic CD1 mouse model of thigh infection assessed as reduction in bacterial colony forming unit in thigh at 20 mg/kg, iv qd measured after 24 hrs relative to control; type: functional
[15] = test system: RAW264.7; test: Cytotoxicity against mouse RAW264.7 cells assessed as reduced cell viability at 4 ug/ml measured after 16 hrs by MTT assay; type: cell-based; conditions: raw264.7, 16 h, dose 4 µg/ml
[16] = test system: HepG2; test: Cytotoxicity against human HepG2 cells assessed as reduced cell viability at 4 ug/ml measured after 16 hrs by MTT assay; type: cell-based; conditions: hepg2, 16 h, dose 4 µg/ml
[17] = test system: Staphylococcus aureus; test: Antibacterial activity against methicillin-resistant Staphylococcus aureus ATCC 43300 assessed as inhibition of bacterial growth measured after 8 passages at sub-MIC concentration incubated for 24 hrs by resistant development assay; type: functional
[18] = test system: RAW264.7; test: Cytotoxicity against mouse RAW264.7 cells assessed as reduced cell viability at 4 ug/ml measured after 16 hrs by MTT assay relative to control; type: cell-based; conditions: raw264.7, 16 h, at 4 µg/mL
[19] = test system: Staphylococcus aureus; test: Bactericidal activity against methicillin-resistant Staphylococcus aureus ATCC 43300 assessed as reduction in bacterial growth at 4X MIC measured for 24 hrs by time kill assay; type: functional; design: scale not given: the % may be the effect or the level left
[20] = test system: Staphylococcus aureus; test: as §1, with “2.51” for “2.04”; type: functional
[21] = test system: Staphylococcus aureus; test: as §1, with “4X” for “2X”, “2.51” for “2.04”; type: functional
[22] = test system: Staphylococcus aureus; test: as §1, with “2.44” for “2.04”; type: functional
[23] = test system: Staphylococcus aureus; test: as §1, with “4X” for “2X”, “2.44” for “2.04”; type: functional

Compound | MIC [1] [µg/mL] | MIC [2] [µg/mL] | MIC [3] [µg/mL] | MIC [4] [µg/mL] | MIC [5] [µg/mL] | MBC [6] [µg/mL] | MBC [7] [µg/mL] | MBC [8] [µg/mL] | MBC [9] [µg/mL] | MBC [10] [µg/mL] | Activity [15] | Activity [16] | other results
C=C[C@]1(C)C[C@@H](OC(=O)CSc2nnc(C)n2/N=C/c2ccc(-c3ccccn3)cc2)[C@]2(C)[C@H](C)CC[C@]3(CCC(=O)[C@H]32)[C@@H](C)[C@@H]1O | 0.25 (≈ 0.381 µM) | 0.5 (≈ 0.762 µM) | 0.5 (≈ 0.762 µM) | 1 (≈ 1.52 µM) | > 64 | 1 (≈ 1.52 µM) | 1 (≈ 1.52 µM) | 2 (≈ 3.05 µM) | 4 (≈ 6.1 µM) | > 64 | Non-Toxic | Non-Toxic | Activity [11]: 99.9%; Time [12]: 4.06 h; Time [13]: 4.27 h; Activity [14]: -2.28 log10CFU/ml; MIC [17]: 2 µg/mL (≈ 3.05 µM)
C=C[C@]1(C)C[C@@H](OC(=O)CSc2nnc(C)n2/N=C/c2ccc(C)cc2)[C@]2(C)[C@H](C)CC[C@]3(CCC(=O)[C@H]32)[C@@H](C)[C@@H]1O | 0.5 (≈ 0.843 µM) | 1 (≈ 1.69 µM) | 1 (≈ 1.69 µM) | 2 (≈ 3.37 µM) | > 64 | 1 (≈ 1.69 µM) | 2 (≈ 3.37 µM) | 4 (≈ 6.75 µM) | 4 (≈ 6.75 µM) | > 64 | – | Non-Toxic | Activity [18]: 30%
C=C[C@]1(C)C[C@@H](OC(=O)CSc2nnc(C)n2/N=C/c2ccc(O)cc2)[C@]2(C)[C@H](C)CC[C@]3(CCC(=O)[C@H]32)[C@@H](C)[C@@H]1O | 0.25 (≈ 0.42 µM) | 0.5 (≈ 0.841 µM) | 0.5 (≈ 0.841 µM) | 1 (≈ 1.68 µM) | > 64 | 1 (≈ 1.68 µM) | 2 (≈ 3.36 µM) | 2 (≈ 3.36 µM) | 2 (≈ 3.36 µM) | > 64 | Non-Toxic | Non-Toxic | Activity [19]: 99.9%; Time [20]: 2.55 h; Time [21]: 3.22 h
C=C[C@]1(C)C[C@@H](OC(=O)CSCCN(CC)CC)[C@]2(C)[C@H](C)CC[C@]3(CCC(=O)[C@H]32)[C@@H](C)[C@@H]1O [TIAMULIN] | 0.5 (≈ 1.01 µM) | 1 (≈ 2.03 µM) | 1 (≈ 2.03 µM) | 1 (≈ 2.03 µM) | > 64 | 1 (≈ 2.03 µM) | 1 (≈ 2.03 µM) | 2 (≈ 4.05 µM) | 2 (≈ 4.05 µM) | > 64 | – | – | Time [22]: 1.72 h; Time [23]: 2.14 h; Activity [14]: -1.4 log10CFU/ml; MIC [17]: 32 µg/mL (≈ 64.8 µM)
C=C[C@]1(C)C[C@@H](OC(=O)CSc2nnc(C)n2/N=C/c2ccccc2Cl)[C@]2(C)[C@H](C)CC[C@]3(CCC(=O)[C@H]32)[C@@H](C)[C@@H]1O | 1 (≈ 1.63 µM) | 1 (≈ 1.63 µM) | 1 (≈ 1.63 µM) | 2 (≈ 3.26 µM) | > 64 | 2 (≈ 3.26 µM) | 2 (≈ 3.26 µM) | 4 (≈ 6.52 µM) | 4 (≈ 6.52 µM) | > 64 | Non-Toxic | Non-Toxic | –
C=C[C@]1(C)C[C@@H](OC(=O)CSc2nnc(C)n2/N=C/c2ccccc2[N+](=O)[O-])[C@]2(C)[C@H](C)CC[C@]3(CCC(=O)[C@H]32)[C@@H](C)[C@@H]1O | 0.5 (≈ 0.802 µM) | 1 (≈ 1.6 µM) | 2 (≈ 3.21 µM) | 2 (≈ 3.21 µM) | > 64 | 1 (≈ 1.6 µM) | 4 (≈ 6.41 µM) | 8 (≈ 12.8 µM) | 8 (≈ 12.8 µM) | > 64 | Non-Toxic | Non-Toxic | –
C=C[C@]1(C)C[C@@H](OC(=O)CSc2nnc(C)n2/N=C/c2ccc(N3CCOCC3)cc2)[C@]2(C)[C@H](C)CC[C@]3(CCC(=O)[C@H]32)[C@@H](C)[C@@H]1O | 0.5 (≈ 0.753 µM) | 1 (≈ 1.51 µM) | 1 (≈ 1.51 µM) | 2 (≈ 3.01 µM) | > 64 | 1 (≈ 1.51 µM) | 2 (≈ 3.01 µM) | 4 (≈ 6.03 µM) | 4 (≈ 6.03 µM) | > 64 | Non-Toxic | Non-Toxic | –
C=C[C@]1(C)C[C@@H](OC(=O)CSc2nnc(C)n2/N=C/c2ccc(C(F)(F)F)cc2)[C@]2(C)[C@H](C)CC[C@]3(CCC(=O)[C@H]32)[C@@H](C)[C@@H]1O | 2 (≈ 3.09 µM) | 2 (≈ 3.09 µM) | 2 (≈ 3.09 µM) | 4 (≈ 6.18 µM) | > 64 | 4 (≈ 6.18 µM) | 4 (≈ 6.18 µM) | 8 (≈ 12.4 µM) | 8 (≈ 12.4 µM) | > 64 | Non-Toxic | Non-Toxic | –
